Test results taken from patent US20050080037A1, “Methods for treating acute and overuse sprain and strain using hyaluronic acid” (priority 2003, published 2005).

Tested on: patients with first or second degree lateral ankle sprain
Assay: Efficacy of HA on ankle sprain following periarticular administration (clinical study 1: HA; study 2: celecoxib or naproxen)
Assay type: in vivo, human
Details: for Percentage increase in Patient's Global Assessment (improved by one or more grades) / Mean Patient's Satisfaction Assessment (10 point scale) / Mean Physician's Satisfaction Assessment (10 point scale): study 2, oral BID for 7 days; for Mean VAS Weight-bearing (100 mm): study 2, oral BID for 7 days (celecoxib 200 mg, naproxen 500 mg)
Protocol: The study was conducted in accordance with good clinical practice and in compliance with the requirement of the International Conference on Harmonization and Declaration of Helsinki. On Day 1 (within 48 hours of the injury), the patients were examined to assess whether they meet all the inclusion criteria and none of the exclusion criteria after signing the informed consent. The inclusion criteria were: 18 years and older, first or second degree lateral ankle […] within 48 hours of administration of study drug, reported moderate (45-60 mm) to severe (>60 mm) ankle pain on full weight bearing on the Patient's Assessment of Ankle Pain using a 100 mm Visual Analogue Scale (VAS). This scale was available for the duration of the clinical follow-up. Patients with bilateral ankle […] injury, third-degree […], or previous ankle […] within 6 months were excluded. Also excluded were patients who had recently used anti-inflammatory drugs, muscle relaxants, or certain classes of psychotropic medications that could confound the results. In addition, patients with sensitivity or allergy to NSAIDs or sulfonamides as well as patients with a history of serious GI, renal, or hepatic disease were excluded. Patients with other rheumatic diseases or a history of drug or alcohol abuse were also excluded. After enrollment, patients received periarticular injections of HA (study 1) or an inhibitor of cyclooxygenase-2 or a NSAID (study 2). […] Eight to ten mg of HA (0.8-1.0 ml of HA) was injected, without anesthetic (study 1). Oral treatments with an inhibitor of cyclooxygenase-2, celecoxib 200 mg BID, or with a NSAID, naproxen 500 mg BID, were done for 7 days (study 2). Clinical assessments were performed at baseline, and then before treatment on Day 4 and Day 8 (end of study). […] In Table 1, 7 patients received HA. In Table 2, 199 patients received celecoxib and 198 patients received naproxen.

| Compound | Percentage increase in Patient's Global Assessment (improved by one or more grades) (at day 4) | Mean VAS Weight-bearing (100 mm) (at day 4) | Mean Patient's Satisfaction Assessment (10 point scale) (at day 8) | Mean Physician's Satisfaction Assessment (10 point scale) (at day 8) | Percentage increase in Patient's Global Assessment (improved by one or more grades) (at day 8) | Mean VAS Weight-bearing (100 mm) (at day 8) |
| --- | --- | --- | --- | --- | --- | --- |
| Cc1ccc(-c2cc(C(F)(F)F)nn2-c2ccc(S(N)(=O)=O)cc2)cc1 [Celecoxib, celecoxib] | 71% | 31.9 mm | 8.8 | 8.7 | 89% | 15.0 mm |
| COc1ccc2cc([C@H](C)C(=O)O)ccc2c1 [Naproxen, naproxen] | 72% | 29.0 mm | 8.7 | 8.6 | 90% | 15.3 mm |
